How the values were obtained:
[1] = system: human pluripotent stem cells; test: HD-DoE 12-factor experiment for stage 1 recipe, gene expression by quantitative PCR after 3 days; type: cell-based; conditions: for factor contribution on expression of SIX3: model optimized for maximal expression of SIX3, 3-day treatment; for factor contribution on expression of FEZF2: model optimized for maximum expression of FEZF2
Excerpt: This example utilizes a method of High-Dimensional Design of Experiments (HD-DoE), as previously described in Bukys et al. (2020) […] 23:101346. The method employs computerized design geometries to simultaneously test multiple process inputs and offers mathematical modeling of a deep effector/response space. The method allows for finding combinatorial signaling inputs that control a complex process, such as during cell differentiation. It allows testing of multiple plausible critical process parameters, as such parameters impact output responses, such as gene expression. Because gene expression provides hallmark features of the phenotype of, for example, a human cell, the method can be applied to identify, and understand, which signaling pathways control cell fate. In the current example, the HD-DOE method was applied with the intent to find conditions for induction of […] neural progenitor-expressed genes, directly from the pluripotent stem cell state. To develop the recipe for each stage, the impact of agonists and antagonists of multiple signaling pathways (herein called effectors) on the expression of two sets of 53 pre-selected genes, after a 3-day treatment, has been tested and modeled. These effectors are small molecules or proteins that are commonly used during stepwise differentiation of stem cells to specific fates. Choice of the effectors were based on current literature on neural induction in forebrain region of developing brain and differentiation of stem cells to neural progenitors. To test the effectors, experiments with at least 8 factors were designed that can assess the response of cells to 48 or more different combinations of effectors in a range of concentrations. To analyze the models, we focused on expression of genes involved in development and patterning of the anterior neuroectoderm and forebrain including OTX2 (Hoch et al. (2015) Cell Reports 12:482-494), SIX3 (Lagutin et al. (2003) Genes & Development 17:368-379) and FEZF2 (Zhang et al. (2014) Development 141:4794-[…]). At later stages we focused on dorsoventral patterning of telencephalon and gene expressed in ventral forebrain including NKX2-1 and absence of PAX6 which is a dorsal forebrain marker (Stoykova et al. (2000) J. Neurosci. 20:8042-8050). The impact of each effector on gene expression level is defined by a parameter called factor contribution that is calculated for each effector during the modeling. To identify the recipe for stage 1 of differentiation, 96 different combinations of effectors generated using Design-of-Experiments compression through D-optimality were robotically prepared. The effector combinations were prepared in a basal media and were subsequently added to the cells, which were then allowed to differentiate. Three days later RNA extraction was performed, and gene expression was obtained using quantitative PCR analysis. […] Solutions within the tested space could then be explored to address desirability. Optimizing for maximal expression of SIX3 at 3300 and FEZF2 1355 expression values led to robust solutions. This model was derived from testing 12 effectors including AGN193109, LDN193189, CHIR99021, XAV939, IGF2, Purmorphamine, 4-oxo-RA, TTNPB, SR11237, FGF8, PD0325901 and […]. […] The model was also optimized for maximum expression of FEZF2 separately at 3576 expression value to find any additional factors that can boost expression of forebrain genes. […] To find the set of factors that have the potential to optimize all 3 genes in this experiment, a new assessment was done through dynamic profile analysis with focus on maximal expression of OTX2, FEZF2 and SIX3.

[2] = system: human pluripotent stem cells; test: additional HD-DoE experiment for stage 1 (forebrain differentiation from pluripotency), optimized for FEZF2; type: cell-based; conditions: for impact on expression of FEZF2: dynamic profile, FIG. 6; for factor contribution on expression of FEZF2: positive impact, additional stage 1 experiment optimized for FEZF2, FIG. 5
Experimental: To identify the recipe for stage 1 of differentiation, 96 different combinations of effectors generated using Design-of-Experiments compression through D-optimality were robotically prepared. The effector combinations were prepared in a basal media and were subsequently added to the cells, which were then allowed to differentiate. Three days later RNA extraction was performed, and gene expression was obtained using quantitative PCR analysis. The data were normalized and modeled using partial least squares regression analysis to the effector design, resulting in the generation of gene-specific models, which after model tuning for maximal Q2 predictive power, provided explanation of the effectors ability to control the expression of individual genes, combinatorially, and individually. Solutions within the tested space could then be explored to address desirability.
To further enhance the conditions for forebrain differentiation from pluripotency, an additional HD-DoE experiment was performed. Additional gene regulatory models were obtained that were used for preparation of the differentiation protocol. The factors in this experiment included LDN193189, PD173074, BLU9931, Purmorphamine, SC79, MK2206, ZM336372, PD0325901, CHIR99021, XAV939, UCLA-GP130, Tofacitinib and GO6983. […] Dynamic profile analysis was also used to assess the interaction between the effectors.

[3] = system: forebrain-committed neural stem cells (stage 1 neural stem cells); test: HD-DoE 12-factor experiment for stage 2 recipe, optimized for NKX2-1; type: cell-based, human; conditions: model maximized for NKX2-1 / dynamic profile, FIG. 7 and 8
How it was run: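 Forebrain-committed neural stem cells treated for 3 days after stage 1 with combinations of 12 factors (LDN193189, BMP7, PD0325901, MK2206, A8301, XAV939, CHIR99021, purmorphamine, SANT-1, AGN193109, TTNPB, GSI-XX). Response scored as maximal NKX2-1 and minimal PAX6 expression.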

[4] = system: forebrain-committed neural stem cells (stage 1 neural stem cells); test: factor criticality analysis (dynamic profile analysis) of stage 2 recipe; type: cell-based, human
Experimental: To assess the impact of the elimination of each validated factor, dynamic profile analysis was used and compared the expression level of genes of interest in absence of each finalized factor while others are present.
In the stage 2 recipe, each of the four finalized factors were removed while the other three factors remained present and expression levels of NKX2-1, PAX6 and NKX2-2 were assessed compared to presence of all four factors. The results are summarized in FIG. 13A-B. Absence of PD0325901 reduced the levels of NKX2-1 and NKX2-2 while increasing PAX6 from 5000 to 3200, 100 to 0 and 0 to 5000, respectively. […] Removing XAV939 reduced the levels of NKX2-1 from 5000 to 3000, while increasing both PAX6 and NKX2-2 to 10000 and 200, respectively. Another observation was the interaction between XAV939 and Purmorphamine. In the absence of XAV939, the impact of Purmorphamine on NKX2-1 became negative and, as it is shown in interaction plot of FIG. 14, the level of NKX2-1 is higher when both factors are present.

[5] = dynamic profile analysis, FIG. 4

c1ccc2c(-c3cnn4cc(-c5ccc(N6CCNCC6)cc5)cnc34)ccnc2c1 [LDN193189]
factor contribution, important input for high expression of SIX3 ([1]; FIG. 2 legend, model optimized for maximum expression of SIX3 as printed): 24.9
impact on expression of OTX2 [1, 5]: positive impact
factor contribution on expression of OTX2 ([1]; positive impact, model of maximum expression of OTX2): 8
factor contribution on expression of SIX3 ([1]; positive impact): 16
factor contribution on expression of FEZF2 ([1]; positive impact): 25
impact on expression of FEZF2 [2]: positive impact
factor contribution on expression of FEZF2 [2]: 18
impact on expression of NKX2-1 [3]: increase its expression level
expression level of PAX6 in the absence of the effector ([4]; stage 2 recipe, other three factors present, 0 with all four factors): below 0
expression level of NKX2-2 in the absence of the effector ([4]; stage 2 recipe, other three factors present, 100 with all four factors): below 0
expression level of NKX2-1 in the absence of the effector ([4]; stage 2 recipe, other three factors present, 5000 with all four factors): did not significantly change

c1ccc2c(Oc3nc(Nc4ccc(N5CCOCC5)cc4)c4ncn(C5CCCCC5)c4n3)cccc2c1 [Purmorphamine]
impact on expression of FEZF2 [1, 5]: positive impact
impact on expression of OTX2 [1, 5]: negative effect
impact on expression of SIX3 [1, 5]: positive impact
factor contribution on expression of SIX3 ([1]; positive impact): 5
factor contribution on expression of FEZF2 ([1]; positive impact): 7
impact on expression of FEZF2 [2]: positive impact
factor contribution on expression of FEZF2 [2]: 11
impact on expression of NKX2-1 [3]: increase its expression level
impact on NKX2-1 in the absence of XAV939 ([4]; interaction between XAV939 and Purmorphamine, FIG. 14): negative

From patent publication US20230332103A1, “Methods and Compositions for Generating Human Forebrain Neural Progenitor Cells and for Maturation Thereof to Parvalbumin+ Interneurons” (Trailhead Biosystems Inc., priority 2021, published 2023)
